Source: patent US10744150B2, “Cyclic dinucleotides as anticancer agents” (BRISTOL-MYERS SQUIBB COMPANY, priority 2017, dated 2020)
Read-outs that look alike come from different tables or passages of the source.

Tests used:
[1] = molecular target: T1, STING WT: His-TVMV-S-hSTING(155-341)-H232R (Homo sapiens, UniProt Q86WV6, H232R); test: STING HTRF binding assay (time resolved FRET competition), STING WT; settings: 20 nM His-tagged STING cytoplasmic domain, 200 nM fluorescein-labeled cGAMP analog probe, one hour; read-out: HTRF Binding Assays IC50 STING WT
T1 construct: His-TVMV-S-hSTING(155-341)-H232R
T1 sequence (Q86WV6 with tags, fused parts or gaps H232R): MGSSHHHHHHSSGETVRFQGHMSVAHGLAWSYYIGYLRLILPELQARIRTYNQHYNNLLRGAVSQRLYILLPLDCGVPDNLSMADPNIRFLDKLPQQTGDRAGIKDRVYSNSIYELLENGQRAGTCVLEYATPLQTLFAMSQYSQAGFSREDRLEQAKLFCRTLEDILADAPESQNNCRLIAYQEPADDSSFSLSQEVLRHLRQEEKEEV
Procedure: (§1) A time resolved FRET-based competition binding assay was used to assess test article binding to STING WT and STING AQ. His-tagged STING cytoplasmic domain (WT or AQ) at a concentration of 20 nM was incubated with 2.5 nM Tb-labeled anti-His antibody, test compound, and fluorescein-labeled cGAMP analog probe (BioLog cat. no. C195) at a concentration of 200 nM (STING WT) or 40 nM (STING AQ) in PBS containing 0.005% Tween-20 and 0.1% BSA for one hour. Fluorescence at 495 nm and 520 nm was measured using an EnVision microplate reader to quantify FRET between Tb-labeled anti-His antibody and fluorescein-labeled probe. Background was defined as the signal obtained in the absence of STING protein, and background subtracted FRET ratios were normalized to the maximum signal obtained in the absence of test compound. These values were converted to a percent inhibition. Percent inhibition was determined for test compounds at 11 concentrations. The IC50, defined as the concentration of competing test compound needed to reduce specific binding of the probe by 50%, was calculated using the 4 parameter logistic equation to fit the data

[2] = molecular target: T2, STING AQ: His-TVMV-S-hSTING(155-341)-G230A-R293Q (Homo sapiens, UniProt Q86WV6, G230A/H232R/R293Q); test: STING HTRF binding assay (time resolved FRET competition), STING AQ; settings: 20 nM His-tagged STING cytoplasmic domain, 40 nM fluorescein-labeled cGAMP analog probe, one hour; read-out: HTRF Binding Assays IC50 STING AQ
T2 construct: His-TVMV-S-hSTING(155-341)-G230A-R293Q
T2 sequence (Q86WV6 with tags, fused parts or gaps G230A/H232R/R293Q): as the sequence (Q86WV6 with tags, fused parts or gaps H232R) above, with G99A, R162Q counted along it
Procedure: as §1

[3] = system: NFkB; test: STING THP1 reporter assay, NF-κB pathway (SEAP, QUANTI-Blue); format: cell-based; settings: THP1-Dual cells, 10% human plasma, 100% activation = 100 μM cGAMP
Source text: (§2) THP1-Dual™ cells were derived from the human THP-1 monocyte cell line by stable integration of two inducible reporter constructs. To this end, THP1-Dual™ cells allow the simultaneous study of the NF-κB pathway, by monitoring the activity of SEAP, and the IRF pathway by assessing the activity of a secreted luciferase (Lucia). Both reporter proteins are readily measurable in the cell culture supernatant when using QUANTI-Blue™, a SEAP detection reagent, and QUANTI-Luc™, a luciferase detection reagent.
(§3) THP1-Dual™ cells induce the activation of NF-κB in response to STING agonists. They also trigger the IRF pathway upon stimulation with STING agonists, such as cGAMP. Here, the THP-1-Dual cells were used to assess STING binders for function on the cellular level.
(§4) Serial dilutions of compounds in DMSO were added to low volume 384 well plates at 100 nl/well using an ECHO acoustic dispenser (Labcyte, model 550) to achieve final starting concentration of 100 μM in cell suspension. THP-1 Dual™ STING reporter cells (Invivogen, Dual cells cat # THPD-nfis) were added to the plates with compounds at 15,000 cells in 10 μL per well in RPMI media (Gibco, cat #11875) containing 10% human plasma in a low volume 384-well black wall clear bottom tissue culture plate (Corning, cat #3542) for SEAP assay and low volume solid white plate (Corning, cat #3826) for luciferase assay. One column of the plate was reserved for treatment with cGAMP at 100 μM for 100% activation calculation and one column for no treatment (DMSO only) for baseline activation. Plates were then incubated in 37° C. incubator at 5% CO2 for 20 hours.
(§5) In the SEAP assay, 5 μl of 2× QuantiBlue (Invivogen, cat # Rep-qb2) is added to 384 well black plates seeded with THP1 cells and incubated at 37° C. for 2 hours. Plates were read on the Envision (Perkin Elmer) at 620 nm wavelength (OD620). In the luciferase assay, 5 μl of Quantiluc (Invivogen, Rep-qlc2) is added to white 384 well plates seeded with THP1 cells and read at 5 minutes on the Envision (Perkin Elmer) using a luminescence protocol (RLU). For both cell lines, 100% activation was determined by value (RLU) of THP-1 Dual STING cells stimulated with 100 μM cGAMP (Invivogen, cat # TLRL-NACGA23-5).

[4] = system: IRF3; test: STING THP1 reporter assay, IRF pathway (secreted luciferase Lucia, QUANTI-Luc); format: cell-based; settings: THP1-Dual cells, 10% human plasma, 100% activation = 100 μM cGAMP, luciferase readout, read-out: THP1 Reporter Assays EC50 IRF3
Source text: as §2, §3, §4, §5

[5] = Homo sapiens, THP-1, 20 h, SEAP readout OD620, read-out: THP1 Reporter Assays EC50 NFkB
[6] = 20 hours, SEAP readout OD620, read-out: THP1 Reporter Assays EC50 NFkB

SMILES | IC50 [1] [µM] | IC50 [2] [µM] | EC50 [3, 5] [µM] | EC50 ([4]; Homo sapiens, THP-1, 20 h) [µM] | EC50 [3, 6] [µM] | EC50 ([4]; 20 hours) [µM]
Nc1ncnc2c1ncn2[C@@H]1C[C@@H]2COP(=O)(O)O[C@H]3[C@@H](F)[C@H](n4cnc5c(N)ncnc54)O[C@@H]3COP(=O)(O)OC[C@H]21 [Example 10, (1R,6S,8R,9R,15R,17R,18R)-8,17-bis(6-amino-9H-purin-9-yl)-18-fluoro-3,12-dihydroxy-2,4,11,13,16-pentaoxa-3λ^5,12λ^5-diphosphatricyclo[13.3.0.0^6,9]octadecane-3,12-dione] | 5.2 | 0.04 | > 100 | > 100 | – | –
Nc1ncnc2c1ncn2[C@@H]1O[C@@H]2COP(O)(=S)OC[C@@H]3[C@@H](COP(O)(=S)O[C@H]2[C@H]1F)C[C@H]3n1cnc2c(=O)[nH]cnc21 (single isomer, unassigned) [Example 5-2] | 0.44 | 0.02 | – | – | > 100 | > 100
O=c1[nH]c2nccn2c2c1ncn2[C@@H]1O[C@@H]2COP(=O)(S)OC[C@@H]3[C@@H](COP(=O)(S)O[C@@H]1[C@@H]2O)C[C@H]3n1cnc2c(O)ncnc21 (single isomer, unassigned) [Example 14-1] | 83 | 4.5 | > 100 | > 100 | – | –
NC(=O)c1cccc2c1nnn2[C@@H]1O[C@@H]2COP(O)(=S)OC[C@@H]3[C@@H](COP(O)(=S)O[C@@H]1[C@@H]2F)C[C@H]3n1cnc2c(N)ncnc21 (single isomer, unassigned) [Example 11-3] | 0.82 | 0.11 | – | – | 51 | 70
Nc1ncnc2c1ncn2[C@@H]1C[C@@H]2COP(O)(=S)O[C@H]3[C@@H](F)[C@H](n4cnc5c(=O)[nH]c6nccn6c54)O[C@@H]3COP(O)(=S)OC[C@H]21 (single isomer, unassigned) [Example 9-1] | > 100 | 20 | > 100 | > 100 | – | –
Nc1nc2c(ncn2[C@@H]2C[C@@H]3COP(O)(=S)O[C@H]4[C@@H](F)[C@H](n5cnc6c(N)ncnc65)O[C@@H]4COP(O)(=S)OC[C@H]32)c(=O)[nH]1 (single isomer, unassigned) [Example 18-4] | 0.05 | 0.004 | – | – | 74.5 | > 100
Nc1ncnc2c1ncn2[C@@H]1C[C@@H]2COP(O)(=S)O[C@H]3[C@@H](F)[C@H](n4cnc5c(=O)[nH]c6nccn6c54)O[C@@H]3COP(O)(=S)OC[C@H]21 (single isomer, unassigned) [Example 9-4] | 1.4 | 0.08 | – | – | > 100 | > 100
NC(=O)c1cccc2c1nnn2[C@@H]1O[C@@H]2COP(O)(=S)OC[C@@H]3[C@@H](COP(O)(=S)O[C@@H]1[C@@H]2F)C[C@H]3n1cnc2c(N)ncnc21 (single isomer, unassigned) [Example 11-2] | 19.4 | 1.4 | – | – | > 100 | > 100
NC(=O)c1cccc2c1nnn2[C@@H]1O[C@@H]2COP(O)(=S)OC[C@@H]3[C@@H](COP(O)(=S)O[C@H]2[C@H]1F)C[C@H]3n1cnc2c(N)ncnc21 (single isomer, unassigned) [Example 12-2] | > 100 | 88.7 | – | – | > 100 | > 100
Nc1ncnc2c1ncn2[C@@H]1C[C@@H]2COP(O)(=S)O[C@@H]3[C@H](O)[C@@H](COP(O)(=S)OC[C@H]21)O[C@H]3n1cnc2c(O)nc3nccn3c21 (single isomer, unassigned) [Example 15-3] | 32.6 | 1.2 | – | – | > 100 | > 100
Nc1ncnc2c1ncn2[C@@H]1O[C@@H]2COP(O)(=S)OC[C@@H]3[C@@H](COP(O)(=S)O[C@H]2[C@H]1F)C[C@H]3n1cnc2c(O)nc3nccn3c21 (single isomer, unassigned) [Example 3-4] | 1 | 0.09 | – | – | 40 | 31
Nc1ncnc2c1ncn2[C@@H]1C[C@@H]2COP(O)(=S)O[C@H]3[C@@H](F)[C@H](n4cnc5c(=O)[nH]c6nccn6c54)O[C@@H]3COP(O)(=S)OC[C@H]21 (single isomer, unassigned) [Example 9-3] | 9.1 | 0.35 | – | – | > 100 | > 100
Nc1ncnc2c1ncn2[C@@H]1O[C@@H]2COP(O)(=S)OC[C@@H]3[C@@H](COP(O)(=S)O[C@H]2[C@H]1F)C[C@H]3n1cnc2c(O)nc3nccn3c21 (single isomer, unassigned) [Example 3-2] | 4 | 0.46 | – | – | > 100 | > 100
Nc1ncnc2c1ncn2[C@@H]1O[C@@H]2COP(O)(=S)OC[C@@H]3[C@@H](COP(O)(=S)O[C@H]2[C@H]1F)C[C@H]3n1cnc2c(O)nc3nccn3c21 (single isomer, unassigned) [Example 3-3] | 0.18 | 0.14 | – | – | 58 | 33
Nc1ncnc2c1ncn2[C@@H]1C[C@@H]2COP(=O)(S)O[C@H]3[C@@H](F)[C@H](n4cnc5c(N)ncnc54)O[C@@H]3COP(=O)(S)OC[C@H]21 (single isomer, unassigned) [Example 2-2] | 0.88 | 0.01 | – | – | > 100 | 85
Nc1ncnc2c1ccn2[C@@H]1O[C@@H]2COP(O)(=S)OC[C@@H]3[C@@H](COP(O)(=S)O[C@H]2[C@@H]1F)C[C@H]3n1cnc2c(N)ncnc21 (single isomer, unassigned) [Example 8-3] | > 100 | > 100 | – | – | > 100 | > 100
Nc1ncnc2c1ncn2[C@@H]1C[C@@H]2COP(=O)(S)O[C@H]3[C@@H](F)[C@H](n4cnc5c(N)ncnc54)O[C@@H]3COP(=O)(S)OC[C@H]21 (single isomer, unassigned) [Example 2-1] | 24 | 0.21 | – | – | > 100 | > 100
Nc1ncnc2c1ncn2[C@@H]1C[C@@H]2COP(O)(=S)O[C@H]3C[C@H](n4ccc5c(Cl)ncnc54)O[C@@H]3COP(=O)(S)OC[C@H]21 (single isomer, unassigned) [Example 6-1] | > 100 | 38.9 | > 100 | > 100 | – | –
NC(=O)c1cccc2c1nnn2[C@@H]1C[C@@H]2COP(O)(=S)O[C@H]3[C@@H](F)[C@H](n4cnc5c(N)ncnc54)O[C@@H]3COP(O)(=S)OC[C@H]21 (single isomer, unassigned) [Example 13-4] | 3 | 0.05 | – | – | > 100 | 86
Nc1ncnc2c1ncn2[C@@H]1C[C@@H]2COP(O)(=S)O[C@H]3[C@H](F)[C@H](n4ccc5c(Cl)ncnc54)O[C@@H]3COP(O)(=S)OC[C@H]21 (single isomer, unassigned) [Example 7-1] | > 100 | 32.7 | > 100 | > 100 | – | –
